Among the data in ChEMBL document CHEMBL4811240, “Discovery of N-substituted sulfamoylbenzamide derivatives as novel inhibitors of STAT3 signaling pathway based on Niclosamide” (Eur J Med Chem, 2021) are inhibition, logP and IC50 values, retold here.

Series [1] deals with MDA-MB-231. The series can be described thus: Antiproliferative activity against human MDA-MB-231 cells assessed as inhibition of cell viability at 10 uM after 48 hrs by MTT assay relative to control. The series is classed as functional.
Series [2] deals with HCT-116. Put plainly: Antiproliferative activity against human HCT116 cells assessed as inhibition of cell viability at 10 uM after 48 hrs by MTT assay relative to control. The series is classed as functional. In general terms: Tetrazolium dyes change colour on reduction, which living cells bring about.
Series [3] relates to SW480. Put plainly: Antiproliferative activity against human SW480 cells assessed as inhibition of cell viability at 10 uM after 48 hrs by MTT assay relative to control. Format: functional.
The subject of series [4] is L3.6pl. Put plainly: Antiproliferative activity against human L3.6 cells assessed as inhibition of cell viability at 10 uM after 48 hrs by MTT assay relative to control. The series is classed as functional.
Series [5] in a line: Lipophilicity, log P of the compound. The series is classed as physicochemical. To be noted: octanol/water.
Series [6] deals with MDA-MB-231. The series can be described thus: Antiproliferative activity against human MDA-MB-231 cells assessed as inhibition of cell viability after 48 hrs by MTT assay. The series is classed as functional, cell-based. Particulars: MDA-MB-231, 48 h.
Series [7] concerns HCT-116. The series can be described thus: Antiproliferative activity against human HCT-116 cells assessed as inhibition of cell viability after 48 hrs by MTT assay. Format: functional, cell-based. To be noted: HCT-116, 48 h.
For series [8], the system named is SW480. Put plainly: Antiproliferative activity against human SW480 cells assessed as inhibition of cell viability after 48 hrs by MTT assay. The series is classed as functional, cell-based. Particulars: SW480, 48 h.

As to `COc1cccc(CNC(=O)c2ccc(Cl)c(S(N)(=O)=O)c2)c1`, the inhibition (in general, the change of the read-out against control, counted positive when it falls) at 10 µM in series [1] worked out at 36.3%; in series [2], 64.2%; in series [3] it was 37.7%; in series [4], 19.4%. The logP (in general, the decadic logarithm of the partition coefficient of the neutral form, usually between octanol and water) in series [5] was 1.34. The figures for the concentration for half-maximal inhibition (IC50) in series [6], in series [7] and in series [8] were more than 20 µM, 18.6 µM and more than 20 µM, respectively.
Take `CC(C)(C)OC(=O)c1ccc(NC(=O)c2cccc(S(N)(=O)=O)c2)cc1`: the inhibition at 10 µM in series [1] worked out at 91.1%; in series [2], 79.3%; in series [3], 55.4%; in series [4], 31.2%. In series [5], this molecule registered a logP of 1.54. Moreover, the results for the IC50 in series [6] and in series [7] were 0.7 µM and 9.82 µM, respectively.
Take `COc1cc(NC(=O)c2ccc(Cl)c(S(=O)(=O)NC(=O)C=C(C)C)c2)cc(OC)c1OC`: the inhibition at 10 µM was 22.3% in series [1], 20.1% in series [2], 22.6% in series [3] and -7.12% in series [4].
Taken in the same sequence, the figures for `NS(=O)(=O)c1cccc(C(=O)Nc2cccc(C(F)(F)F)c2)c1` were 27.2%, 39.7%, 34.4% and 9.27%.
As for `COc1cc(NC(=O)c2ccc(Cl)c(S(=O)(=O)NC(=O)c3ccccc3)c2)cc(OC)c1OC`, the inhibition at 10 µM in series [1] is 2.05%; in series [2] it was 32.3%; in series [3] it was 29.5%; in series [4], -27.8%.
With `COc1cc(NC(=O)c2cccc(S(N)(=O)=O)c2)cc(OC)c1`, the inhibition at 10 µM in series [1] was 39.6%; in series [2], 47.1%; in series [3], 40.4%; in series [4] it was 22.2%.
On to `NS(=O)(=O)c1cc(C(=O)Nc2c(F)c(F)c(F)c(F)c2F)ccc1Cl`, for which the inhibition at 10 µM in series [1] came to 33.1%; in series [2], 34%; in series [3] it was 27.1%; in series [4], 12.6%.
Take `COc1ccc(OC)c(NC(=O)c2cccc(S(N)(=O)=O)c2)c1`: the inhibition at 10 µM in series [1] was 37%; in series [2], 46.4%; in series [3], 31.9%; in series [4], 20.5%.
Take `COc1cc(NC(=O)c2ccc(Cl)c(S(=O)(=O)NC(=O)c3ccc(Cl)nc3)c2)cc(OC)c1OC`: the inhibition at 10 µM in series [1] is 5.01%; in series [2] it was -9.17%; in series [3], 8.11%; in series [4] it was -15.7%.
Taken in the same sequence, the figures for `COc1cc(NC(=O)c2ccc(Cl)c(S(N)(=O)=O)c2)cc(OC)c1OC` were 93.3%, 87.9%, 82.2% and 42.1%.
The like results for `CCC(=O)NS(=O)(=O)c1cc(C(=O)Nc2cc(OC)c(OC)c(OC)c2)ccc1Cl` were, in that order, 19.6%, 27.2%, 21.3% and 1.47%.
The like results for `C=C(C)C(=O)NS(=O)(=O)c1cc(C(=O)Nc2cc(OC)c(OC)c(OC)c2)ccc1Cl` were, in that order, 4.84%, 30%, 22.3% and -11.3%.
Consider `COc1ccc(NC(=O)c2cccc(S(N)(=O)=O)c2)cc1`, for which the inhibition at 10 µM in series [1] came out at 32.3%; in series [2], 42.7%; in series [3], 38.4%; in series [4] it was 23.9%.
Turning to `COc1ccc(C(=O)NS(=O)(=O)c2cc(C(=O)Nc3cc(OC)c(OC)c(OC)c3)ccc2Cl)cc1`, the inhibition at 10 µM in series [1] turned out to be 13.1%; in series [2], 4.8%; in series [3], 20.1%; in series [4], 18.3%.
